Measurements reported in patent US6362212B1, “Oxime derivative and bactericide containing the same as active ingredient” (Shionogi & Company, Ltd., priority 1994, dated 2002).

Tests used:
Type in all cases: in vivo
[1] = test system: Sphaerotheca fuliginea; test: Controlling effect on Sphaerotheca fuliginea by foliage application (pot experiment); details: foliage spray on cucumber (cv. TSUKUBASHIROIBO) first leaves, infected area after 10 days in greenhouse at 20° C.
Outline: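 First leaves of cucumber seedlings, 2-3 weeks old, were sprayed with compound (DMF solution diluted in water with spreader). They were inoculated 24 h later with a Sphaerotheca fuliginea conidia spray and kept 10 days at 20° C in a greenhouse. Percent control was calculated from infected leaf area.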

[2] = test system: Erysiphe graminis f. sp. tritici; test: Controlling effect on Erysiphe graminis f. sp. tritici by foliage application (pot experiment); details: foliage spray on wheat (cv. NORIN No. 61) seedlings, infected area after 10 days in greenhouse at 20° C.
Outline: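 Wheat seedlings (cv. NORIN No. 61, 2-3 weeks old) sprayed with compound in DMF diluted in water with spreader, then inoculated with conidia 24 hours later. Kept in greenhouse at 20 °C for 10 days; percent control calculated from infected leaf area.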

[3] = test system: Pseudoperonospora cubensis; test: Controlling effect on Pseudoperonospora cubensis by foliage application (pot experiment); details: foliage spray on cucumber (var. TSUKUBASHIROIBO) first leaves, lesion area after 10 days in moist chamber at 20° C.
Method: The following Test Examples illustrate the effects of the fungicide of the present invention. (I. Controlling effects on various plant diseases by foliage application (pot experiment)) A test compound was dissolved in a small amount of N,N-dimethylformamide, and the solution was diluted to a given concentration with distilled water containing a spreader. Thus, a liquid sample to be tested was prepared. The liquid sample was sprayed to test plants, and 24 hours thereafter, pathogens were inoculated by the method described below. […] The seeds of cucumber (var.: […]) were sown in plastic cups (each 9 cm in diameter), followed by cultivation for 2 to 3 weeks. The test compound in the form of a solution or suspension was sprayed to the surface of their first leaves, and a zoosporangia suspension of Pseudoperonospora cubensis cultured on cucumber leaves was dropped on the above leaf surfaces to inoculate the test plants with the pathogen. After the inoculation, the plants were kept in a moist chamber at 20° C. for 10 days. Then, the area of the lesions around the inoculum were observed and the percent control was calculated.

Row | Compound | Controlling effect on Sphaerotheca fuliginea by foliage application at 500 ppm (percent control) [1] | Controlling effect on ErYsiphe graminis f. sp. tritici by foliage application at 500 ppm (percent control) [2] | Controlling effect on Pseudoperonospora cubensis by foliage application at 500 ppm (percent control) [3]
1 | CON=C(c1cc(C)on1)c1ccccc1COc1ccccc1C (mixture of isomers) [compound 412] | 100 percent control | 70 percent control | 100 percent control
2 | CON=C(c1ccccc1COc1cccc(Cl)c1)c1nccn1C (single isomer, unassigned) [106B] | 97 percent control |  | 100 percent control
3 | CON=C(c1ccno1)c1ccccc1COc1ccc(Cl)cc1C (single isomer, unassigned) [541A] | 100 percent control | 90 percent control | 100 percent control
4 | CON=C(c1cc(C)no1)c1ccccc1COc1cccc(Cl)c1 (single isomer, unassigned) [606A] | 100 percent control | 70 percent control | 95 percent control
5 | CON=C(c1cc(C)no1)c1ccccc1COc1cccc(Cl)c1 (single isomer, unassigned) [606B] | 100 percent control |  | 100 percent control
6 | CON=C(c1cc(C)no1)c1ccccc1COc1ccc(Cl)cc1 (single isomer, unassigned) [607B] | 97 percent control | 70 percent control | 97 percent control
7 | CON=C(c1cc(C)no1)c1ccccc1COc1ncc(C(F)(F)F)cc1Cl (single isomer, unassigned) [690B, 2-(3-chloro-5-trifluoromethyl-2-pyridyloxymethyl)phenyl 3-methylisoxazol-5-yl ketone O-methyloxime] |  |  | 100 percent control
8 | COC(=O)C(C)N(C(=O)Cc1ccccc1)c1c(C)cccc1C (stereo not shown) [Benalaxyl, reference compound] |  |  | 97 percent control
9 | CON=C(c1cc(C)no1)c1ccccc1CON=C(C)c1ccc(Cl)cc1 [Compound No. 2507] | 100 percent control |  | 100 percent control
10 | CON=C(c1ncon1)c1ccccc1COc1ccc(-c2ccccc2)cc1 [compound 844] | 97 percent control |  | 100 percent control
11 | CON=C(c1noc(C)n1)c1ccccc1COc1ccccc1Cl [compound 905] | 90 percent control |  | 99 percent control
12 | CON=C(c1nnn(C)n1)c1ccccc1COc1ccc(C)cc1 [compound 2014] | 100 percent control |  | 100 percent control
13 | CON=C(c1nnn(C)n1)c1ccccc1COc1ccc(-c2ccccc2)cc1 [compound 2044] | 97 percent control |  | 100 percent control
